Data as given in US7816400B2 (The University of Hong Kong, priority 2007, dated 2010).
Like-named read-outs stand apart in the source and are kept apart here.

Experiments:
anesthetized dogs [1] = experiment: Experimental vagotonic AF in anesthetized dogs; type: in vivo, dog
anesthetized dogs [2] = experiment: In vivo electrophysiology (atrial ERP, QTc) in anesthetized dogs; parameters: species or system dog; details: 5 mg/kg intraduodenal
Kv1.5 = biological target: T1, Kv1.5 (Homo sapiens, UniProt P22460); experiment: Kv1.5 channel block in stably expressing HEK 293 cells; type: cell-based
T1 construct: expressed in transfected cells
Description: The established HEK 293 cell lines stably expressing the hERG channel gene, Kv1.5 (Tang et al., 2007), or recombinant human cardiac KCNQ1/KCNE1 channel current (IKs) (Dong et al., 2006) was maintained separately in Dulbecco's modified eagle medium (Invitrogen) supplemented with 10% fetal bovine serum and containing 400 μg/ml G418 (for hERG or Kv1.5 channels) or 100 μg/ml hygromycin (for IKs).
The whole-cell patch-clamp technique was used for electrophysiological recording. Borosilicate glass electrodes (1.2-mm OD) were pulled with a Brown-Flamming puller (model P-97, Sutter Instrument Co, Novato, Calif., USA) and had tip resistances of 2-3 MΩ when filled with pipette solution. Membrane currents were recorded in voltage-clamp mode using an EPC-9 amplifier and Pulse software (HEKA, Lambrecht, Germany). A 3-M KCl-agar salt bridge was used as reference electrode. The tip potentials were compensated before the pipette touched the cell. After a giga-ohm seal was obtained, the cell membrane was ruptured by gentle suction to establish the whole-cell configuration. The cell membrane capacitance (pF) was directly measured using the lock-in module of the Pulse software, and used for normalizing the current in individual cells. The series resistance (Rs) was 3-5 MΩ and was compensated by 50-70% to minimize voltage errors. Perforated patch configuration was used for recording action potential in human atrial cells and IKs in HEK 293 cells as described previously (Li et al., 2002b; Dong et al., 2006). Current signals were low-pass filtered at 5 kHz and stored on the hard disk of an IBM compatible computer.
Other derivatives/analogs studied have no effect or a week inhibitory effect on Kv1.5.

hERG channels = hERG channels (Homo sapiens, UniProt Q12809); experiment: cell-based
human atrial myocytes = experiment: Action potential in human atrial myocytes, perforated patch, current clamp; type: cell-based
isolated rabbit hearts = experiment: ECG (heart rate, QTc) in isolated hypokalemic rabbit hearts, Langendorff; details: 10 μM, hypokalemic (3 mM K+) perfusion
[3] = BCL 200 ms, pre-treatment (baseline)
[4] = BCL 250 ms, pre-treatment (baseline)
[5] = HEK 293 cells stably expressing Kv1.5, Table 3, read-out: Kv1.5 (IC50)
[6] = HEK293, HEK 293 cells stably expressing Kv1.5, Table 3, read-out: Kv1.5 (IC50)

T1 sequence (P22460 whole entry): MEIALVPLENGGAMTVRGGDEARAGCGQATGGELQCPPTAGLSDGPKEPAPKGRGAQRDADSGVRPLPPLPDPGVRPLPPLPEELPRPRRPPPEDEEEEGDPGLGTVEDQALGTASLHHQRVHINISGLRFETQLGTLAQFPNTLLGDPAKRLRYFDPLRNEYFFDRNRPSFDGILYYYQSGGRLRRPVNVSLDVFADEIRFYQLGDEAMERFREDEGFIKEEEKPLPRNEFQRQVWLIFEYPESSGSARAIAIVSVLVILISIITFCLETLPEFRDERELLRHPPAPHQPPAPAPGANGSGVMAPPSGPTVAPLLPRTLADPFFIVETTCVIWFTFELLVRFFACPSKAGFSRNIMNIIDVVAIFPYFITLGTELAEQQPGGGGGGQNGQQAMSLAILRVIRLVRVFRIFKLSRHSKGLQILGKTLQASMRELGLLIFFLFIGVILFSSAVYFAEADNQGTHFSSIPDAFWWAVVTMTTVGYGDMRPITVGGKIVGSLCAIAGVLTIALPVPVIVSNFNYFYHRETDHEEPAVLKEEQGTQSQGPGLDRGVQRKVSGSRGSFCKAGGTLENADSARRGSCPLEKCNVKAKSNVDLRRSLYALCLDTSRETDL
Chain of hERG channels (Q12809 whole entry): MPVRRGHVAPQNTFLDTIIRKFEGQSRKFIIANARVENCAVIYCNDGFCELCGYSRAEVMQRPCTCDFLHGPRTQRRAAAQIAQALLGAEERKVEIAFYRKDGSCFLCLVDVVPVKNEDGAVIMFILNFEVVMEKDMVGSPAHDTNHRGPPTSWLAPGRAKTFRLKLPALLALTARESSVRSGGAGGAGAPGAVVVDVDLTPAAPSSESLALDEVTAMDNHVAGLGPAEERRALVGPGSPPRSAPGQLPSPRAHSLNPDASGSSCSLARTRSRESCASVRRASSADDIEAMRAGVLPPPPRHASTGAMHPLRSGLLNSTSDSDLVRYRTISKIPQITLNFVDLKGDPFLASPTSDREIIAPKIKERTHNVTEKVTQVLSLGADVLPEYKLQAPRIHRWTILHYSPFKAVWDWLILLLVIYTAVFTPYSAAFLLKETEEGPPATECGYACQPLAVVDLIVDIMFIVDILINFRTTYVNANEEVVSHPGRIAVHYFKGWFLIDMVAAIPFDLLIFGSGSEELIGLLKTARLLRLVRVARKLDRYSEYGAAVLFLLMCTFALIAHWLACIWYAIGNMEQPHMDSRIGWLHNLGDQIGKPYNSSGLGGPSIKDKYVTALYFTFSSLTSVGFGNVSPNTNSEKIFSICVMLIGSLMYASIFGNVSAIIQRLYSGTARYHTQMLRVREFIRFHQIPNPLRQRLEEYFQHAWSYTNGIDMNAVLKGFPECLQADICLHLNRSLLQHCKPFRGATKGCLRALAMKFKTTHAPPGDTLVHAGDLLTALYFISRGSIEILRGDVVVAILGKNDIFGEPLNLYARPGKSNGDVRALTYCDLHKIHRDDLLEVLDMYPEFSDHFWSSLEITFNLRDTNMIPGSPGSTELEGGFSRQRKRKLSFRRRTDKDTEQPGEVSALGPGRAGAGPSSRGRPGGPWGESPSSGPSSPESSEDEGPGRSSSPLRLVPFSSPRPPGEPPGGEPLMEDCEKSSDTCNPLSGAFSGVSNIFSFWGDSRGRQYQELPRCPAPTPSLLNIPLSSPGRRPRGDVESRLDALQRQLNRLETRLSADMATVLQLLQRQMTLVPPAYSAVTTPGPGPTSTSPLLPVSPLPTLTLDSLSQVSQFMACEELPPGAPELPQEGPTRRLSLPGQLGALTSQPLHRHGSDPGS

| IC50 (Kv1.5; [5]) [µM] | effect on Kv1.5 compared with acacetin, in words (Kv1.5; comparative study, Table 3) | SMILES | IC50 (hERG channels) [µM] | other results |
| --- | --- | --- | --- | --- |
| – | – | CC(C)NCC(O)c1ccc(NS(C)(=O)=O)cc1 (stereo not shown) [Sotalol, sotalol] | – | summarized anti-AF efficacy (anesthetized dogs [1]; 5 mg/kg intraduodenal, vehicle 0%): 60%; animals in which sustained AF was not observed (anesthetized dogs [1]; 5 mg/kg intraduodenal, vehicle: sustained AF in 100%): 40%; incidence of AF, in words (anesthetized dogs [1]; acacetin 2.5, 5, 10 mg/kg, sotalol 5 mg/kg, 1.5-2.5 h after intraduodenal administration): reduced the incidence of AF; left atrial ERP (ms), BCL 200 ms (anesthetized dogs [2]; BCL 200 ms, 2 h post-treatment): 105.1 ± 5.1 ms; left atrial ERP (ms), BCL 200 ms (anesthetized dogs [2]; [3]): 88.8 ± 3.7 ms; right atrial ERP (ms), BCL 200 ms (anesthetized dogs [2]; [3]): 88.7 ± 3.9 ms; left atrial ERP (ms), BCL 250 (anesthetized dogs [2]; [4]): 94.3 ± 3.1 ms; right atrial ERP (ms), BCL 250 (anesthetized dogs [2]; [4]): 96.3 ± 8.3 ms |
| 2.04 | – | COc1ccc(C(=O)Oc2cc(O)cc3oc(-c4ccc(OC)cc4)cc(=O)c23)cc1 [A-2] | 4.1 | ion channel selectivity for Kv1.5 and hERG channels compared with acacetin, in words (Kv1.5; comparative study, Table 3): less ion channel selectivity |
| – | – | Nc1ccncc1 [4-AP, reference compound] | – | rate dependence of APD50, APD75, APD90 prolongation, in words (human atrial myocytes; 50 μM 4-AP (data not shown)): reverse rate-dependent prolongation; action potential duration, in words (human atrial myocytes; 50 μM 4-AP, 2 Hz): prolonged APD50 more than APD90 |
| 13.7 | less effect | COc1ccc(-c2cc(=O)c3cc(C)ccc3o2)cc1 [A-6] | – | – |
| – | less effect | COc1ccc(-c2cc(=O)c3c(O)cc(OC(=O)c4ccccc4)cc3o2)cc1 [A-2-12] | – | inhibition at 100 µM (Kv1.5; [6]): < 50% |
| > 100 | no effects | O=c1cc(-c2ccccc2)oc2cc(O)c(O)c(O)c12 [A-12] | > 100 | – |
| – | – | C=C[C@H]1C[N@@]2CC[C@H]1C[C@@H]2[C@@H](O)c1ccnc2ccc(OC)cc12 [Quinidine, quinidine] | – | QTc interval of ECG, in words (isolated rabbit hearts): prolonged QTc interval; heart rate, in words (isolated rabbit hearts): slowed heart rate; QTc interval of ECG, in words (isolated rabbit hearts; listed as quinidine): significantly increased |
| – | less effect | COc1ccc(-c2cc(=O)c3c(O)cc(OC(C)=O)cc3o2)cc1 [A-2-11] | – | inhibition at 100 µM (Kv1.5; [6]): < 50% |
| – | less effect | CCOc1cc(O)c2c(=O)cc(-c3ccc(OC)cc3)oc2c1 [A-2-14] | – | inhibition at 100 µM (Kv1.5; [6]): < 50% |
| – | less effect | COc1ccc(-c2cc(=O)c3c(O)cc(OC)cc3o2)cc1 [A-2-13] | – | inhibition at 100 µM (Kv1.5; HEK293, read-out: Kv1.5 (IC50, μM)): < 50% |
| 9 | less effect | COc1ccc(-c2cc(=O)c3ccccc3o2)cc1 [A-4] | – | – |

| SMILES | IC50 (Kv1.5; [5]) [µM] | effect on Kv1.5 compared with acacetin, in words (Kv1.5; comparative study, Table 3) | IC50 (hERG channels) [µM] | other results |
| --- | --- | --- | --- | --- |
| Oc1cc(O)c2c(c1)O[C@H](c1ccc(O)c(O)c1)[C@@H](O)C2 [A-9] | > 100 | no effects | > 100 | – |
| COc1ccc(-c2cc(=O)c3cc(Cl)ccc3o2)cc1 [A-5] | 23.5 | less effect | 13 | – |
| CC1OC(OCC2OC(Oc3c(-c4ccc(O)c(O)c4)oc4cc(O)cc(O)c4c3=O)C(O)C(O)C2O)C(O)C(O)C1O (stereo not shown) [A-11] | – | no effects | > 100 | IC50 (Kv1.5): > 100 µM |
